“Also recorded” adds a separate entry of the source.
What was measured:
β-catenin target genes = experiment: Real-time PCR of β-catenin target genes in crypt cells; assay type: in vivo; details: crypt epithelial cells, irradiated mice treated with BCN057 vs irradiated control
Method: To compare the mRNA levels of β-catenin target genes in intestinal crypt cells from irradiated mice treated with BCN057 or PBS real-time PCR were performed using primer pairs for the genes Ephb2, Ascl, Olf, Tcf, Lef, Sox9 and Axin. RNA was isolated from crypt cells using RNeasy mini kit from Qiagen. Preparation of cDNA followed by real-time PCR array was performed according to manufacturer protocol (Qiagen).

[1] = tested on: C57B16 mice exposed to PBI (BM40); experiment: Survival after partial body irradiation (PBI, BM40); assay type: in vivo; details: 14.5 Gy PBI (BM40), BCN057 at 24 hrs post PBI; untreated dead within 12 days
Excerpt: FIG. 1C. Kaplan Meier survival analysis of C57B16 mice (n=25/group) exposed to PBI (BM40). Head & Neck and upper extremities were shielded to spare 40% of bone marrow.
Unless there has been a very focal radiation exposure there will also be involvement of many other organ systems, and their differential responses to various doses of irradiation will impact the gastrointestinal acute radiation syndrome (GI-ARS) dose response. All radiation doses inducing GI-ARS will have a major impact on the bone marrow, which in turn will affect the levels of intestinal inflammation and ability of the body to manage the infection resulting from bacterial translocation through an impaired intestinal mucosal barrier. To investigate involvement of bone marrow in survival outcome upon BCN057 treatment, C57B16 mice were exposed to partial body irradiation (PBI) where 40% of total bone marrow was […] to irradiation after shielding head and fore limbs. Treatment with BCN057 at 24 hrs post exposure of 14.5 Gy PBI rescued 70% of mice from radiation lethality (p<0.0001). However, all the untreated mice were dead within 12 days post-exposure (FIG. 1C).

[2] = tested on: human malignant colonic organoids; experiment: Human colon tumor derived organoids with or without irradiation; assay type: cell-based
Excerpt: FIG. 16. […] Organoids derived from surgical specimen of colon tumor were exposed to irradiation (8Gy) and then treated with BCN057. Note loss of budding crypt like structure in Irradiated organoids treated with BCN057.
FIG. 17. […] Budding crypt to total crypt ratio reduced in a dose dependent manner following irradiation (2-8 Gy).
BCN057 was first examined in the National Cancer Institute (NCI) 60 cancer cell line platform. Several of these cell lines are known to be positive for dysregulation of the Wnt/b-catenin signaling pathway. […] Next we examined the effect of BCN057 in human colonic tumor derived organoids exposed to irradiation.

COc1ccc2cc(-c3nc4ccc(C)cn4c3NCc3ccco3)c(=O)[nH]c2c1 [BCN057, 3-(3((furan-2-ylmethyl)ammo)-6-methylimidazo[1,2-a]pyridine-2-yl)-6-methoxyquinolin-2(1H)-one]
mRNA level of β-catenin target genes (β-catenin target genes): several fold increases
survival [1]: 70%
rescue of malignant organoids from radiation toxicity ([2]; 8Gy (2-8 Gy in FIG. 17), BCN057 10 uM at 1 hr post radiation): did not recue organoids from radiation toxicity; also recorded: did not rescue; also recorded: could not reduce the radiation toxicity
growth and proliferation of malignant organoid ([2]; un-irradiated organoids treated with BCN057): inhibitory effect
